Results: article PMC10040144 (ACS infectious diseases, 2022)

Assays:
E. coli MG1655 [1] = assay: Phase-contrast imaging of treated cells; format: cell-based; settings: Figure S5
PBP1a = PBP1a (Escherichia coli, UniProt P02918); format: cell-based, Escherichia coli MG1655
PBP1b = PBP1b (Escherichia coli, UniProt P02919); format: cell-based, Escherichia coli MG1655
PBP2 = PBP2 (Escherichia coli, UniProt P0AD65); format: cell-based, Escherichia coli MG1655
PBP3 = PBP3 (Escherichia coli, UniProt P0AD68); format: cell-based, Escherichia coli MG1655
PBP4 [2] = target: T1, PBP4 (Escherichia coli, UniProt P24228); format: cell-based, Escherichia coli MG1655; settings: for Bocillin-FL labeling of PBP4 at high inhibitor concentration: 10 mM inhibitor, all three biological replicates
PBP7 = PBP7 (Escherichia coli, UniProt P0AFI5); format: cell-based, Escherichia coli MG1655
PBP5/6 = format: cell-based, Escherichia coli MG1655; settings: 10 mM inhibitor, all three biological replicates
PBP4 [3] = target: T1, PBP4; assay: Meropenem titration against the PBPs in cell lysate; format: binding; settings: E. coli MG1655 lysate, in vitro (Figure S3)
PBP4 [4] = settings: read-out: reported IC50 values PBP4; literature range; cited from earlier work
E. coli MG1655 [5] = assay: Growth curve analysis of viability after permeabilization; settings: 200 μM in Tris for 30 min, then LB broth 37 °C, A600 over 18 h
[6] = 10 mM inhibitor, all three biological replicates

| Compound | IC50 (PBP1a) [µM] | IC50 (PBP1b) [µM] | IC50 (PBP2) [µM] | IC50 (PBP3) [µM] | IC50 (PBP4 [2]) [µM] | IC50 (PBP7) [µM] | also measured |
| --- | --- | --- | --- | --- | --- | --- | --- |
| O=C(O)CN(CCN(CC(=O)O)CC(=O)O)CC(=O)O [Tris-EDTA, ethylenediaminetetraacetic acid] | – | – | – | – | – | – | cell morphology by phase-contrast imaging (E. coli MG1655 [1]): little difference in the morphologies; fold increases in PBP labeling in comparison to Tris alone (PBPs; cotreatment with 25 μM Bocillin-FL in 50 mM Tris-200 μM EDTA, 30 min): 1.2–5 fold; fold increases in Bocillin-FL labeling in comparison to the original DC2 method (PBPs; vs 7.5 μM Bocillin-FL in PBS, 10 min): 2 to 61 fold |
| NC(=O)[C@@H]1CC[C@@H]2CN1C(=O)N2OS(=O)(=O)O [avibactam] | > 10000 | 310 ± 460 | < 100 | > 10000 | > 10000 | – | – |
| C[C@H]1[C@H](NC(=O)/C(=N\OC(C)(C)C(=O)O)c2csc(N)n2)C(=O)N1S(=O)(=O)O [aztreonam] | 970 ± 940 | 1.6 ± 0.9 | > 10000 | – | > 10000 | – | Bocillin-FL labeling of PBP2 at high inhibitor concentration (PBP2; [6]): increased Bocillin-FL labeling; Bocillin-FL labeling of PBP4 at high inhibitor concentration (PBP4 [2]): increased Bocillin-FL labeling; Bocillin-FL labeling of PBP7 at high inhibitor concentration (PBP7; [6]): increased Bocillin-FL labeling |
| N[C@@H](C(=O)N[C@@H]1C(=O)N2C(C(=O)O)=C(Cl)CS[C@H]12)c1ccccc1 [cefaclor] | > 10000 | > 10000 | 360 ± 210 | 15 ± 14 | > 10000 | 86 ± 66 | Bocillin-FL labeling of PBP5/6 at high inhibitor concentration (PBP5/6): labeling was increased |
| CO/N=C(\C(=O)N[C@@H]1C(=O)N2C(C(=O)[O-])=C(C[N+]3(C)CCCC3)CS[C@H]12)c1csc(N)n1 [cefepime] | 5.5 ± 2.6 | 2.6 ± 2.4 | 0.2 ± 0.1 | < 0.0001 | > 10000 | – | Bocillin-FL labeling of PBP4 at high inhibitor concentration (PBP4 [2]): increased Bocillin-FL labeling; Bocillin-FL labeling of PBP5/6 at high inhibitor concentration (PBP5/6): increased Bocillin-FL labeling |
| CO/N=C(\C(=O)N[C@@H]1C(=O)N2C(C(=O)O)=C(CSc3nc(=O)c(=O)[nH]n3C)CS[C@H]12)c1csc(N)n1 [ceftriaxone] | 4.9 ± 2.2 | 0.2 ± 0.2 | 1.5 ± 0.9 | – | 3 ± 8 | 9.5 ± 9.8 | – |
| CO/N=C(\C(=O)N[C@@H]1C(=O)N2C(C(=O)O)=C(COC(N)=O)CS[C@H]12)c1ccco1 [cefuroxime] | 73 ± 42 | 1.6 ± 1.9 | 91 ± 65 | 0.02 ± 0.01 | 24 ± 22 | 25 ± 31 | – |
| CC1=C(C(=O)O)N2C(=O)[C@@H](NC(=O)[C@H](N)c3ccccc3)[C@H]2SC1 [cephalexin] | > 10000 | > 10000 | – | – | 68 ± 79 | 200 ± 250 | – |
| C[C@@H](O)[C@H]1C(=O)N2C(C(=O)O)=C([C@H]3CCCO3)S[C@H]12 [faropenem] | 6.4 ± 3.6 | 0.4 ± 0.2 | 0.04 ± 0.04 | – | 2 ± 1.6 | 1.2 ± 1.8 | – |
| C[C@@H](O)[C@H]1C(=O)N2C(C(=O)O)=C(S[C@@H]3CN[C@H](C(=O)N(C)C)C3)[C@H](C)[C@H]12 [meropenem] | > 10000 | 110 ± 86 | 0.01 | – | > 10000 | – | PBP4 inhibition in lysate (PBP4 [3]): no PBP4 inhibition; IC50 (PBP4 [4]): 0.0001 to 0.01 µM |
| COc1cccc(OC)c1C(=O)N[C@@H]1C(=O)N2[C@@H]1SC(C)(C)[C@@H]2C(=O)O [methicillin] | > 10000 | – | – | – | 87 ± 51 | 58 ± 70 | – |
| CC1(C)S[C@@H]2[C@H](NC(=O)Cc3ccccc3)C(=O)N2[C@H]1C(=O)O [penicillin G] | 170 ± 93 | 1.5 ± 0.7 | 65 ± 36 | 15 ± 9 | – | – | – |
| CCN1CCN(C(=O)N[C@@H](C(=O)N[C@@H]2C(=O)N3[C@@H]2SC(C)(C)[C@@H]3C(=O)O)c2ccccc2)C(=O)C1=O [piperacillin] | 17 ± 15 | 12 ± 7.4 | 2.8 ± 2.8 | – | 25 ± 24 | 2.3 ± 2.5 | – |
| colistin | – | – | – | – | – | – | lag in growth (E. coli MG1655 [5]): ~ 10 h |
